Assay results published in patent publication US7130746B2, “Computer systems and computer programs for determining protein activity levels using gene expression profiles” (priority 1998, dated 2006).

Legend:
[1] = system: wild type yeast cells; conditions: 10 micrograms/ml doxycycline (Gari et al., 1997); cited from earlier work
[2] = system: yeast Saccharomyces cerevisiae; experiment: Yeast growth under methotrexate titration; format: cell-based; conditions: 100 μM methotrexate titration
[3] = system: yeast gene YOL031C; experiment: Transcript array gene expression response to methotrexate, Hill function fit; format: cell-based, Saccharomyces cerevisiae
Excerpt: FIG. 2 illustrates an example of perturbation response profiles measured at discrete protein activity levels of dihydrofolate reductase. Specifically, the figure illustrates mRNA expression levels of 30 genes of the yeast Saccharomyces cerevisiae that, of the 6000 genes in the genome of this yeast, had the largest expression changes in response to six different titrations of the drug methotrexate, which is known to act primarily by disrupting the activity of dihydrofolate reductase. These gene expression level measurements were made with gene transcript arrays, as described in Section 5.5. The perturbation response profiles in FIG. 2 can be interpolated according to the methods disclosed in Section 5.4, below, to provide perturbation response profiles for any activity level of dihydrofolate reductase, i.e., perturbation response curves.
In model fitting, the perturbation responses are interpolated by approximating each by a single parameterized function. An exemplary model-fitting function appropriate for approximating transcriptional state data is the Hill function, which has adjustable parameters a, u0 and n.
[formula] the adjustable parameters are selected independently for each cellular constituent of the perturbation response. Preferably, the adjustable parameters are selected so that for each cellular constituent the sum of the squares of the distances H(pl) from Rk(pl) is minimized. This preferable parameter adjustment method is known in the art as a least squares fit of H( ) to Rk( ). Other possible model functions are based on polynomial fitting, for example by various known classes of polynomials.
Model fitting with a Hill function is illustrated with respect to FIGS. 2 and 4. As discussed, FIG. 2 illustrates an example of perturbation by methotrexate and identified by measurement. This figure illustrates the RNA expression levels of 30 genes of the yeast S. cerevisiae that, of the approximately 6000 genes in the genome of this organism, had the largest expression changes in response to six different exposure levels of methotrexate. […]

Row | SMILES | effect on growth rate [1] | growth defect [2] [%] | Hill function parameter n ([3]; least squares fit of YOL031C expression response) | Hill function parameter a ([3]; least squares fit of YOL031C expression response (log10 expression ratio)) | Hill function parameter log10(u0) ([3]; least squares fit of YOL031C expression response, methotrexate exposures 3-200 μM)
1 | C[C@H]1c2cccc(O)c2C(=O)C2=C(O)[C@]3(O)C(=O)C(C(N)=O)=C(O)[C@@H](N(C)C)[C@@H]3[C@@H](O)[C@@H]21 [doxycycline] | no significant effect |  |  |  | 
2 | CN(Cc1cnc2nc(N)nc(N)c2n1)c1ccc(C(=O)N[C@@H](CCC(=O)O)C(=O)O)cc1 [methotrexate] |  | 50 | 2 | −0.61 | 1.26
